Common to all, as to test: cells
The test system of one assay is A549. As to conditions: Homo sapiens, A549, 48 h.
In the next assay the test system is NCI-H1299. Particulars: Homo sapiens, NCI-H1299, 48 h.
For another assay, the system named is NCI-H460. Particulars: Homo sapiens, NCI-H460, 48 h.

Description for A549: Antitumor activity against human A549 cells assessed as inhibition of cell viability incubated for 48 hrs by MTT assay
Description for NCI-H1299: Antitumor activity against human NCI-H1299 cells assessed as inhibition of cell viability incubated for 48 hrs by MTT assay
Description for NCI-H460: Antitumor activity against human NCI-H460 cells assessed as inhibition of cell viability incubated for 48 hrs by MTT assay

Broadly, the IC50 is the midpoint of a concentration-inhibition curve. As for `COc1cc2nc(-c3ccc(OCC(=O)N4CCN(c5ccc(Nc6ncc7cc(C(=O)N(C)C)n(C8CCCC8)c7n6)nc5)CC4)cc3)[nH]c(=O)c2cc1OC`, the IC50 with A549 was > 40 µM; in the assay with NCI-H1299, > 40 µM; with NCI-H460 it was 38.4 µM.
As for `CN(C)C(=O)c1cc2cnc(Nc3ccc(N4CCN(C(=O)COc5ccc(-c6nc7cc(C(F)(F)F)ccc7c(=O)[nH]6)cc5)CC4)cn3)nc2n1C1CCCC1`, the IC50 is > 40 µM with A549, 21.1 µM in the assay with NCI-H1299 and 34.4 µM with NCI-H460.
On the same counts, the results for `CN(C)C(=O)c1cc2cnc(Nc3ccc(N4CCN(C(=O)COc5ccc(-c6nc7ccc(F)cc7c(=O)[nH]6)cc5F)CC4)cn3)nc2n1C1CCCC1` are > 40 µM, > 40 µM and > 40 µM.
On to `CN(C)C(=O)c1cc2cnc(Nc3ccc(N4CCN(C(=O)COc5ccc(-c6nc7cc(Cl)ccc7c(=O)[nH]6)cc5)CC4)cn3)nc2n1C1CCCC1`, for which the IC50 with A549 is > 40 µM; with NCI-H1299 it was 5.93 µM; in the assay on NCI-H460, > 40 µM.
For the compound `CN(C)C(=O)c1cc2cnc(Nc3ccc(N4CCN(C(=O)COc5ccc(-c6nc7ccc(F)cc7c(=O)[nH]6)cc5)CC4)cn3)nc2n1C1CCCC1`, the IC50 in the assay with A549 was 3.25 µM; with NCI-H1299 it was 9.5 µM; in the assay with NCI-H460, 22.1 µM.
On the same counts, the results for `Cc1ccc2nc(-c3ccc(OCC(=O)N4CCN(c5ccc(Nc6ncc7cc(C(=O)N(C)C)n(C8CCCC8)c7n6)nc5)CC4)cc3)[nH]c(=O)c2c1` are 33.4 µM, > 40 µM and > 40 µM.
For `COc1cc(OC)c2c(=O)[nH]c(-c3ccc(OCC(=O)N4CCN(c5ccc(Nc6ncc7cc(C(=O)N(C)C)n(C8CCCC8)c7n6)nc5)CC4)c(F)c3)nc2c1`, in that order: > 40 µM, 19.5 µM and 26.5 µM.
`CN(C)C(=O)c1cc2cnc(Nc3ccc(N4CCN(C(=O)COc5c(Br)cc(-c6nc7ccc(F)cc7c(=O)[nH]6)cc5Br)CC4)cn3)nc2n1C1CCCC1`: the IC50 in the assay with A549 was 24.7 µM; with NCI-H1299, 16.4 µM; with NCI-H460 it was > 40 µM.
As for `COc1ccc2nc(-c3ccc(OCC(=O)N4CCN(c5ccc(Nc6ncc7cc(C(=O)N(C)C)n(C8CCCC8)c7n6)nc5)CC4)cc3)[nH]c(=O)c2c1`, the half-maximal inhibitory concentration (IC50) in the assay on A549 turned out to be 22.1 µM; in the assay with NCI-H1299 it was 11.9 µM; with NCI-H460, 36.8 µM.
With `COc1cc(OC)c2c(=O)[nH]c(-c3ccc(OCC(=O)N4CCN(c5ccc(Nc6ncc7cc(C(=O)N(C)C)n(C8CCCC8)c7n6)nc5)CC4)c(C)c3)nc2c1`, the half-maximal inhibitory concentration (IC50) came to 10.3 µM with A549, 2.65 µM in the assay with NCI-H1299 and 8.11 µM in the assay on NCI-H460.
As for `COc1cc(OC)c2c(=O)[nH]c(-c3cc(Br)c(OCC(=O)N4CCN(c5ccc(Nc6ncc7cc(C(=O)N(C)C)n(C8CCCC8)c7n6)nc5)CC4)c(Br)c3)nc2c1`, the half-maximal inhibitory concentration (IC50) in the assay with A549 was 16.8 µM; in the assay with NCI-H1299, 26.8 µM; in the assay on NCI-H460 it was 38.8 µM.
On the same counts, the results for `CN(C)C(=O)c1cc2cnc(Nc3ccc(N4CCN(C(=O)COc5ccc(-c6nc7ccccc7c(=O)[nH]6)cc5)CC4)cn3)nc2n1C1CCCC1` are 28.3 µM, 4.5 µM and 18.8 µM.

Source of the values: ChEMBL document CHEMBL6182851, “Discovery of dual CDK4/6 and BRD4 inhibitor as apoptosis and autophagy inducers against NSCLC in vitro and in vivo” (Eur J Med Chem, 2025).
